Assay results as given in patent publication US12098162B2, “Neutral glycosylated amides and dianionic glucuronidated acids as stabilizers for biological molecules” (Extremochem, LDA, priority 2017, dated 2024).

What was measured:
Assay type in all cases: physicochemical
lysozyme = lysozyme (Gallus gallus, UniProt P00698); assay: Stabilization of lysozyme measured by DSF (melting temperature); conditions: 0.25 M stabiliser, FIG. 1; for stabilization effect on lysozyme (increase of melting temperature Tm): 25 mM sodium acetate buffer pH 3.6 and phosphate buffer pH 12, Tm without compounds 71 °C (pH 3.6) and 55 °C (pH 12); for stabilization effect on lysozyme at pH 12 compared with pH 3.6: DSF
Chain of lysozyme (P00698 19-147): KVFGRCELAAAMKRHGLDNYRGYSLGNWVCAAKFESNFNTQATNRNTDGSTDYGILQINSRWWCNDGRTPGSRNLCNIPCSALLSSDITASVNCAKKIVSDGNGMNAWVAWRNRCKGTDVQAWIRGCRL
Description: (§1) Differential Scanning Fluorimetry (DSF) Assay
(§2) The protein melting temperature (Tm) determination was performed by monitoring protein unfolding with the fluoroprobe SYPRO Orange dye (Molecular Probes), which although completely quenched in aqueous environment, emits fluorescence upon binding to protein hydrophobic patches. Such increase in fluorescence can be measured as a function of temperature. The thermal shift assay was performed on an iCycle iQ5 Real Time PCR Detection System (Bio-Rad), equipped with a charge-coupled device (CCD) camera and a Cy3 filter with excitation and emission wavelengths of 490 and 575 nm, respectively. This equipment can simultaneously detect the fluorescence changes in 96-well plates (low profile plate, Bio-Rad) and thus can be used for parallel thermal stability assays. The 96-well plates are sealed with optical quality sealing tape (Bio-Rad) and centrifuged at 2500 g for 1 minutes immediately before the assay to remove possible air bubbles. The plates are subsequently heated from 20 to 90° C. with stepwise increments of 1° C. with 60 seconds equilibration time, followed by the fluorescence read out. Fluorescence intensities versus temperature are used to calculate the protein melting temperature (Tm) by determining the first derivative (d(Rfu)/dT) and extract the exact transition inflection point. Delta TM values (DTM) for the various conditions were calculated by subtracting the TM value obtained for the reference from the TM value obtained for each condition.
(§3) In a typical assay with a total volume of 20 μL, a protein concentration from 0.1-0.5 mg/mL and a dye concentration of 5 fold were used to guarantee the best signal to noise ratio. The protein stock solutions were prepared in their corresponding buffers before performing the DSF experiments. Stabiliser solutions and dyes were prepared according to each assay specific conditions. The assay was prepared by adding 1-2 μL of protein to 8-9 μL of dye buffer solution, and 10 μL of compound solution. Controls were prepared by replacing the volume of stabilisers by the correspondent buffer.
The stabilization of lysozyme in the presence of several stabilisers at 0.25 M concentration and at pH 3.6 and pH 12 was studied using DSF (FIG. 1). […] The stabilization effect was higher for GBA, GaGlyA, b-GGlyA, b-GaLA, b-GaGlyA, and b-GaBA at the higher pH (pH 12). All new compounds are able to stabilise lysozyme under both stress conditions.

adalimumab (Humira®) [1] = assay: Stabilization assay of adalimumab measured by DSF; conditions: 0.25 M stabiliser; phosphate buffer pH 12; Tm without compounds 41 °C; FIG. 3
Description: as §1
as §2, with “The 96-well plates are sealed with optical quality sealing tape (Bio-Rad) and centrifuged at 2500 g for 1 minutes immediately before the assay to remove possible air bubbles.” left out, “condition. […]” for “condition.”

Factor IX = Factor IX (Homo sapiens, UniProt P00740); assay: Stabilization assay of Factor IX measured by DSF; conditions: 0.25 M stabiliser in water, pH 7-8; Tm without compounds 50 °C; FIG. 5
Chain of Factor IX (P00740 47-461): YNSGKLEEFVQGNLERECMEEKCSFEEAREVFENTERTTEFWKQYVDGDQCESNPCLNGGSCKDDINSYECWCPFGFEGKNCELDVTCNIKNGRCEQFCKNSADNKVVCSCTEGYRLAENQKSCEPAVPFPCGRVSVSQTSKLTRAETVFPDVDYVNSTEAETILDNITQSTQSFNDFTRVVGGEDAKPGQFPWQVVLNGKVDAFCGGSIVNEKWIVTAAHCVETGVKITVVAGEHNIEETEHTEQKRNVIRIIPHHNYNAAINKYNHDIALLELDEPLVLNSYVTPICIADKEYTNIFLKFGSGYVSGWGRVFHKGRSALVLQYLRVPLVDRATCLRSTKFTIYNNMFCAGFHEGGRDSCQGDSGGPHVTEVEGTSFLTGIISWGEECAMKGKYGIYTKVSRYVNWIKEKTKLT
Description: as §1, §2, §3
Stabilization of Factor IX using neutral amide-containing glycosides of the present invention were measured using DSF. The new stabilizers increased the melting temperature of factor IX at a 0.25 M concentration in water and at pH 7-8, as shown in FIG. 5.

ubiquitin = biological target: T1, ubiquitin (Homo sapiens, UniProt P0CG47); assay: Stabilization assay of ubiquitin measured by DSF; conditions: 0.25 M compound; phosphate buffer pH 12; Tm without compounds 72 °C; FIG. 4
T1 construct: Stabilization Assay of Ubiquitin Measured by DSF
Description: as §1
as §2, with “The 96-well plates are sealed with optical quality sealing tape (Bio-Rad) and centrifuged at 2500 g for 1 minutes immediately before the assay to remove possible air bubbles.” left out, “condition. […]” for “condition.”

adalimumab (Humira®) [2] = assay: Stabilization assay of adalimumab (Humira) measured by HPSEC under low pH stress; conditions: GaGlyA 0.5 M; Humira 0.4 mg/ml; room temperature, no thermal stress; compared with no stabiliser; FIG. 2
Description: High Performance Size Exclusion Chromatography (HPSEC) Assay
HP-SEC was performed with Waters 515 pump, a Waters 2487 Dual Absorbance Detector (Waters, USA) and a Rheodyme 77251 injector (Waters, USA). A TSK Gel G3000 SWXL column (300 mm×7.8 mm) (Tosoh Biosep, Germany) was used. The volume of injection was adjusted according to each sample concentration in order to inject […] sample of biological molecule, and separation was performed at a flow rate of 1.0 mL/min or adjusted as appropriate. A suitable running buffer was used, e.g., 100 mM sodium sulfate, 100 mM sodium phosphate dibasic pH 6.8 for Humira® samples. UV detection was performed at a wavelength suitable to detect the biological molecule, e.g., 280 nm. No thermal stress was applied and assay was performed at room temperature. Absorbance was measured to determine the concentration of biological molecule and thus determine amount of degredation of the biological molecule.
A pH titration of adalimumab (Humira®) to pH 3.2 was performed either in the absence and presence of stabiliser GaGlyA 0.5 M, and the results were analysed by HPSEC (FIG. 2). […] Absorbance was measured to determine the concentration of biological molecule and thus determine amount of degredation of the biological molecule. […]

stabilization effect on lysozyme (increase of melting temperature Tm) (lysozyme)	stabilization effect on lysozyme at pH 12 compared with pH 3.6 (lysozyme)	stabilization of Factor IX (increase of melting temperature) (Factor IX)	increase of the melting temperature of ubiquitin (ubiquitin) [°C]	Compound	increase of the melting temperature of adalimumab (adalimumab (Humira®) [1]) [°C]	degradation of adalimumab after 12 hours at pH 3.2 (HPSEC) (adalimumab (Humira®) [2])
showed a stabilization effect	higher	–	–	CC(CC(N)=O)O[C@@H]1O[C@H](CO)[C@H](O)[C@H](O)[C@H]1O (stereo partly drawn) [b-GaBA, 3-O-(β-D-galactopyranosyl)-3-hydroxybutyramide]	22	–
–	–	showed stabilization of factor IX	–	NC(=O)COC1O[C@H](CO)[C@@H](O)[C@H](O)[C@H]1O (stereo partly shown) [GGlyA]	–	–
showed a stabilization effect	higher	–	–	beta-galactosyl-lactamide [b-GaLA]	–	–
showed a stabilization effect	–	–	–	beta-glucosyl-lactamide [b-GLA]	–	–
showed a stabilization effect	–	showed stabilization of factor IX	–	NC(=O)CO[C@H]1O[C@H](CO)[C@@H](O)[C@H](O)[C@@H]1O [MglyA, 2-O-(α-D-mannopyranosyl)acetamide]	–	–
showed a stabilization effect	higher	showed stabilization of factor IX	9	CC(CC(N)=O)OC1O[C@H](CO)[C@@H](O)[C@H](O)[C@H]1O (stereo partly drawn) [GBA, 3-O-(α/β-D-glucopyranosyl)-3-hydroxybutyramide]	–	–
showed a stabilization effect	higher	–	–	NC(=O)COC1O[C@H](CO)[C@H](O)[C@H](O)[C@H]1O (stereo partly shown) [GaGlyA]	–	much reduced

Compound	stabilization effect on lysozyme (increase of melting temperature Tm) (lysozyme)	stabilization effect on lysozyme at pH 12 compared with pH 3.6 (lysozyme)	stabilization of Factor IX (increase of melting temperature) (Factor IX)	increase of the melting temperature of ubiquitin (ubiquitin) [°C]	increase of the melting temperature of adalimumab (adalimumab (Humira®) [1]) [°C]	degradation of adalimumab after 12 hours at pH 3.2 (HPSEC) (adalimumab (Humira®) [2])
C[C@H](OC1O[C@H](CO)[C@H](O)[C@H](O)[C@H]1O)C(N)=O (stereo partly shown) [GaLA]	showed a stabilization effect	–	showed stabilization of factor IX	–	–	–
C[C@H](O[C@H]1O[C@H](CO)[C@@H](O)[C@H](O)[C@@H]1O)C(N)=O [MLA, (2S)-2-O-(α-D-mannopyranosyl)-3-propanamide]	showed a stabilization effect	–	–	–	–	–
